Assay [1] relates to Streptococcus sp. 'group A'. Put plainly: growth inhibition of control SK(-) GAS strain, dose response, counter-screen for streptokinase expression inhibitor project, luminescence, kanamycin, BacTiterGlo, confirmation (AID 1900). Type of assay: functional, organism-based.
Assay [2] deals with Streptococcus. The assay is described as follows: Group A Streptococcus viability loss, dose response, counter-screen for streptokinase expression inhibitor project, luminescence, BacTiterGlo (AID 1915).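 Also: potency for reduction of bacterial viability or growth.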 It is filed as functional, organism-based.
The target in assay [3] is T1, Protein RecA (Mycobacterium tuberculosis, UniProt P9WHJ3).
T1 sequence (P9WHJ3 whole entry): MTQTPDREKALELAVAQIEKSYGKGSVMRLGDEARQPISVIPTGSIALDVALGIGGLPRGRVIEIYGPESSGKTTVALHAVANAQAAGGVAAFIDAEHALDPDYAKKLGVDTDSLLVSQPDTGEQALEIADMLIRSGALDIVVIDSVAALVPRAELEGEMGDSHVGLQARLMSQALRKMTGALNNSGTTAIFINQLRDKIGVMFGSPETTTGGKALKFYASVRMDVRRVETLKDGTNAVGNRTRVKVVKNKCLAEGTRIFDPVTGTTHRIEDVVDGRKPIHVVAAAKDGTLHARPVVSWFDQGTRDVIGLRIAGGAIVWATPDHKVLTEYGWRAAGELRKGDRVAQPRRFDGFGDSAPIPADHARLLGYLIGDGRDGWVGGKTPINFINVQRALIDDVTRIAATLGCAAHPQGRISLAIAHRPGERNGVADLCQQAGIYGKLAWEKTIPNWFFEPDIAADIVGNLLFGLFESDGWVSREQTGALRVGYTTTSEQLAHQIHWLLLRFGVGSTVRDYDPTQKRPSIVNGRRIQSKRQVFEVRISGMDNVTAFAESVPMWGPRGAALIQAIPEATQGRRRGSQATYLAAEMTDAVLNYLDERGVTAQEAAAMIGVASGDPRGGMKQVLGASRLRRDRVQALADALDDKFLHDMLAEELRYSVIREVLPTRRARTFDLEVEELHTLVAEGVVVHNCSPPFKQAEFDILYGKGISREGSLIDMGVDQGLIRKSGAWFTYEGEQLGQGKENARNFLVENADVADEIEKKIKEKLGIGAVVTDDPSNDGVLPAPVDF
Put plainly: Fluorescence Cell-Free Homogeneous Dose Retest to Identify Inhibitors of RecA-Intein Splicing Activity. [Related pubchem assays (depositor defined):AID2097, AID2223, AID489010, AID492950]. Type of assay: functional.

The target in assay [4] is T2, Replicative DNA helicase DnaB (Mycobacterium tuberculosis, UniProt P9WMR3).
T2 sequence (P9WMR3 whole entry): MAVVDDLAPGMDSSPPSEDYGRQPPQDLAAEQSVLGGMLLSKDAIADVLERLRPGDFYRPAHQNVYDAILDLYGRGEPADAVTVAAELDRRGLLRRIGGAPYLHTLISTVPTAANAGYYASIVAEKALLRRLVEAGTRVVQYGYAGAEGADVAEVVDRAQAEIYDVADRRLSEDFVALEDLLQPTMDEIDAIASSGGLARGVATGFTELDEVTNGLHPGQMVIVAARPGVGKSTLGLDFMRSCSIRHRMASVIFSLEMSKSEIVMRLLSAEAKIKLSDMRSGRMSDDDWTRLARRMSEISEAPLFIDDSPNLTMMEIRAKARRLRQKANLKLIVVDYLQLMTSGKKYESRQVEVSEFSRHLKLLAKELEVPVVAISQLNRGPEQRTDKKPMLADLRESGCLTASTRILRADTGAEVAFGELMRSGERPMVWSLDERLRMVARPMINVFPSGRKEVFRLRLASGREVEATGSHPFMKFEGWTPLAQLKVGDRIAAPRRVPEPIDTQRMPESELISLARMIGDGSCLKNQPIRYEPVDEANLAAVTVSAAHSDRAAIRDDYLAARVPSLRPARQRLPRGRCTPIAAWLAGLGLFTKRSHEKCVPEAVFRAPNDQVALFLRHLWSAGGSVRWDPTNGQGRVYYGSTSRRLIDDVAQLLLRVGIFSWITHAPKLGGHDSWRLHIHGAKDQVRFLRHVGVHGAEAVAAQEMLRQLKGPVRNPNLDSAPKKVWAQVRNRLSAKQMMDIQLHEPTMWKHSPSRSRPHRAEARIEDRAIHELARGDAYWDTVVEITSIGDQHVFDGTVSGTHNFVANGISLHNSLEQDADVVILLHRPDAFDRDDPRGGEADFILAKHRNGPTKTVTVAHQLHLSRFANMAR
The assay is described as follows: DnaB intein splicing inhibitors, dose response, biochemical, cell-free fluorescence (AID 449749). Type of assay: functional.

Assay [5] can be described thus: inhibitors of intracellular T. cruzi replication, confirmation, NIH3T3 host cells, beta-gal luminescence (AID 2044).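 Also: intracellular parasites grown in NIH/3T3 mouse fibroblasts as host cells; luminescent beta-galactosidase reporter signal from transgenic T. cruzi replicating inside host cells; inhibitors lower the luminescence signal.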 Type of assay: functional, cell-based.
Assay [6] in a line: cytotoxicity toward NIH3T3 fibroblasts, dose response, counter-screen, cell-based, ATP luminescence, mouse fibroblasts (AID 2010).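 Also: cells exposed to compound for about 90 hours before reading.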 It is filed as functional.
Assay [7] concerns the target Cytochrome P450 2C9 (Homo sapiens, UniProt P11712).

SMILES strings stand for the structures. Activity calls are given as the source filed them. Rule as the data show it, for most assays here: actives have a measured EC50 and inactives only a lower limit. Where only a bound is given, the exact number is not on record here.

Sequence of Cytochrome P450 2C9 (P11712 whole entry): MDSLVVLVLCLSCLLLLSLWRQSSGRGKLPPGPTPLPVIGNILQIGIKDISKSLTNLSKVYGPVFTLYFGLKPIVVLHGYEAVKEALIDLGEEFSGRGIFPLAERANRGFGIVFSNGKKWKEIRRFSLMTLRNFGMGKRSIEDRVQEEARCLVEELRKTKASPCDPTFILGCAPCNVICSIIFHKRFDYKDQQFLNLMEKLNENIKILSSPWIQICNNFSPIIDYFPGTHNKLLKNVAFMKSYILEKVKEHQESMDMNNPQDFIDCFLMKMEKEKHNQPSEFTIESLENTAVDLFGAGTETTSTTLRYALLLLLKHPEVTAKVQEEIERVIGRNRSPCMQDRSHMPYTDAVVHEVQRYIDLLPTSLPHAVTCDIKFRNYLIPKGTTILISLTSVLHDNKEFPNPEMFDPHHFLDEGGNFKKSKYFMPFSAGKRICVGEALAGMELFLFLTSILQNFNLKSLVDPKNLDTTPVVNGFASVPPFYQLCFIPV

For `Cc1nc(Nc2nc(O)cc(-c3ccccc3)n2)nc2ccccc12`, the EC50 in assay [1] is 4.95 µM (active); in assay [2] it was 8.02 µM (active).
Regarding `Cn1[nH]c(CSc2ccc(Cl)cc2)cc1=O`, the concentration giving a half-maximal response (EC50) in assay [3] is 10 µM (active). In assay [4], the AC50 is 20.2 µM (active).
Take `O=[N+]([O-])c1ccc(N2CCN(S(=O)(=O)c3ccc(Cl)c(Cl)c3)CC2)cc1NCCN1CCOCC1`: the results for the EC50 in assay [5] and in assay [6] were 1.68 µM (active) and > 60 µM (not active), respectively.
For the molecule `Cc1ccc(N=C(S)c2nc3ccccc3[nH]2)c(C)c1`, the EC50 in assay [1] was 2.12 µM (active); in assay [2] it was > 150 µM (not active).
For `CCOC(=O)C1(Cc2ccccc2)CCN(Cc2cnc(N3CCOCC3)s2)CC1`, the figures for the EC50 in assay [5] and in assay [6] were 0.644 µM (active) and > 60 µM (inconclusive), respectively.
For the molecule `CC(C)c1ccc(C(=O)NC(=S)Nc2ccc3[nH]c(O)nc3c2)cc1`, the EC50 was 10.2 µM (active) in assay [1] and 53.6 µM (active) in assay [2].
For `Cc1ccc(SCc2ccc(C(=O)Nc3cccc([N+](=O)[O-])c3C)cc2)cc1`, the results for the EC50 in assay [5] and in assay [6] were 1.67 µM (active) and > 30 µM (not active), respectively.
Turning to `Cc1nc2cnc(OCc3ccccc3)nc2n(Cc2ccc(F)cc2)c1=O`, the AC50 in assay [7] is 10 µM (inconclusive).
Consider `CN1CCN(C2=C(Cl)C(=O)N(c3ccc(Cl)cc3)C2=O)CC1`, for which the EC50 in assay [3] is 0.247 µM (active). The AC50 in assay [4] is 1.07 µM (active).
On to `CC1CN(c2nc3ccccc3nc2C(C#N)C(=O)OC2CCCCC2)CC(C)O1` (stereo unspecified), for which the EC50 in assay [5] is 1.15 µM (active); in assay [6] it was 10.6 µM (active).
For `CCC(=O)N/N=C(\C)CC(=O)Nc1cccc([N+](=O)[O-])c1`, the EC50 in assay [3] was 2.36 µM (active). The AC50 in assay [4] was 23.4 µM (active).
On the same counts, the results for `O=C(CC[S+]([O-])NCc1ccccc1)NCc1ccccc1` (stereo unspecified) are > 380 µM (inactive) and > 380 µM (inactive).
For the molecule `O=C(NC(=S)NNC(=O)[C@H]1C[C@@H]1c1ccccc1)c1ccc(F)cc1`, the EC50 is 0.775 µM (active) in assay [1] and 1.87 µM (active) in assay [2].
On the same counts, the results for `O=C(N/N=C/c1cc(Br)cc([N+](=O)[O-])c1O)c1ccc(NC(=O)c2ccc(F)cc2)cc1` are 2.34 µM (active) and 6.54 µM (active).
With `CC(O)CNc1nc2sc3c(c2c(=O)n1CCc1ccccc1)CCCCC3` (stereo unspecified), the results for the EC50 in assay [5] and in assay [6] were 1.89 µM (active) and > 60 µM (not active), respectively.
On the same counts, the results for `O=C(NCc1ccc2c(c1)OCO2)c1ccc(N2CCCCCC2)c([N+](=O)[O-])c1` are 0.709 µM (active) and > 60 µM (not active).
As to `Cn1cc(C(=O)c2ccc(Cl)cc2Cl)cc1C(=O)O`, the AC50 in assay [7] was 14.1 µM (inconclusive).
In the case of `CN1CCc2nc(SCC(=O)Nc3ccc(OC(F)(F)F)cc3)c(C#N)c(-c3cccs3)c2C1`, the EC50 in assay [3] is 2.33 µM (active). Besides, in assay [4], the AC50 was > 380 µM (inactive).
On the same counts, the results for `FC(F)(F)c1cccc(Oc2nc(-c3ccccc3)nnc2C(F)(F)F)c1` are 0.76 µM (active) and 2.06 µM (active).
Take `CCNc1ncc2nc(-c3cn(C)c4ccccc34)c(=O)n(Cc3ccc(F)cc3)c2n1`: the AC50 in assay [7] was 25.1 µM (inconclusive).
Regarding `Cc1cc(C)c(C#N)c(SCc2nnc(-c3ccccc3[N+](=O)[O-])o2)n1`, the EC50 in assay [5] is 2.2 µM (active); in assay [6], > 60 µM (not active).
As for `Cc1cc(N2C(=O)C(O)=C(C(=O)c3cc4ccccc4o3)C2c2cccc(Cl)c2)no1` (stereo unspecified), the values for the EC50 in assay [1] and in assay [2] were 2.09 µM (active) and 5.36 µM (active), respectively.
For the molecule `COc1ccc([N+](=O)[O-])cc1NC(=O)COC(=O)C1CC1`, the EC50 was > 60 µM (not active) in assay [5] and > 60 µM (inconclusive) in assay [6].
On to `C/C(CC(=O)Nc1ccccn1)=N\NC(=O)Cc1cccc2ccccc12`, for which, in assay [3], the EC50 was 2.73 µM (active). Further, the AC50 in assay [4] is 3.54 µM (active).
For `N#CC1=C(N)Oc2[nH]nc(-c3cccs3)c2C1c1cccnc1` (stereo unspecified), the EC50 in assay [3] is > 380 µM (inactive).
For the molecule `COc1cccc(-c2cncnc2NCc2ccccc2OC)c1`, in assay [7], the AC50 was 0.631 µM (inconclusive).
Regarding `CN(C)[C@@H]1C(O)=C(C(N)=O)C(=O)[C@]2(O)C(O)=C3C(=O)c4c(O)cccc4[C@@](C)(O)[C@H]3[C@H](O)[C@@H]12`, the AC50 in assay [7] is 5.01 µM (inconclusive).
On the same count and under the same terms, with `COc1ccc(Nc2ncc3nc(-c4cccs4)c(=O)n(Cc4cccc(OC)c4)c3n2)cc1` the figure was 39.8 µM (inconclusive).
Regarding `CCOc1ccccc1Oc1coc2cc(OC(=O)c3ccco3)ccc2c1=O`, the EC50 in assay [3] is 35.7 µM (active). For the same molecule, the AC50 in assay [4] is > 380 µM (inactive).
In the case of `N#C/C(=C/N1CCOCC1)c1ccccc1`, in assay [7], the AC50 was 28.2 µM (inconclusive).
On to `CCN1C(=O)c2c(C)nc3ccccc3c2C1=O`, for which the EC50 in assay [3] was 0.781 µM (active). In assay [4], the AC50 was 43.4 µM (active).
On to `O=C(O)CCc1ccc(-c2ccccc2)[nH]1`, for which the AC50 in assay [7] is 3.16 µM (inconclusive).
As to `CN(C)CCC1CCN(c2cc(C#N)c(C#N)cc2[N+](=O)[O-])CC1`, the EC50 in assay [5] was 0.345 µM (active); in assay [6] it was > 60 µM (not active).
`Cc1cc(C)cc(C(=O)Nc2nc3ccccc3[nH]2)c1`: the EC50 in assay [1] was 10.6 µM (active); in assay [2] it was 7.31 µM (active).
As to `O=c1c2c3c(sc2n(CCN2CCCC2)c(=O)n1Cc1ccco1)CCCCC3`, the EC50 in assay [5] is 0.331 µM (active); in assay [6] it was > 30 µM (not active).
On the same counts, the results for `Cc1ccn2c(Nc3ccccc3C)c(-c3ccncc3)nc2c1` are 0.56 µM (active) and > 60 µM (not active).
Take `O=C(NC1CCCC1)C(c1ccncc1)N(Cc1ccco1)C(=O)c1ccc(-c2ccccc2)[nH]1` (stereo unspecified): the EC50 in assay [5] is 0.641 µM (active); in assay [6] it was > 30 µM (not active).
As to `COc1cc(/C=C/C(=O)OCC(=O)Nc2ccccc2Sc2ccc(Cl)cc2)ccc1O`, the EC50 in assay [3] is 3.62 µM (active). In addition, the AC50 in assay [4] was > 380 µM (inactive).
As to `O=C(CN(c1ccc(Br)cc1)S(=O)(=O)c1ccc(Cl)c([N+](=O)[O-])c1)NCCc1ccccc1`, the EC50 in assay [5] is 0.592 µM (active); in assay [6], > 60 µM (not active).
Consider `COc1ccc(C(=O)CSc2nc(O)cc(C(F)(F)F)c2C#N)cc1`, for which the EC50 is 3.58 µM (active) in assay [1] and 15.4 µM (active) in assay [2].
`CCOC(=O)CN1N=C(/C=C/c2ccc(C)cc2)CCC1=O`: the AC50 in assay [7] was 28.2 µM (inconclusive).
As for `O=C(Nc1nc(-c2ccco2)c(-c2ccco2)s1)c1cnccn1`, the EC50 in assay [5] was 5.79 µM (active); in assay [6] it was 8.94 µM (active).
For `O=C(Cn1cnc([N+](=O)[O-])n1)NCc1ccccc1`, in that order: 0.479 µM (active) and > 60 µM (not active).

These data come from ChEMBL document CHEMBL1201862, “PubChem BioAssay data set” (2004).
